Data published in patent US20100016313A1, “INTESTINAL ALKALINE PHOSPHATASE MODULATORS AND USES THEREOF” (Burnham Institute for Medical Research, priority 2008, published 2010).

T1: human IAP (Homo sapiens, UniProt P09923)
T1 construct: made in house; host or cells: COS-1 cells, transient expression from pCMV-Script; conditioned serum-free medium used as enzyme stock
T1 sequence (P09923 20-503 limits assumed): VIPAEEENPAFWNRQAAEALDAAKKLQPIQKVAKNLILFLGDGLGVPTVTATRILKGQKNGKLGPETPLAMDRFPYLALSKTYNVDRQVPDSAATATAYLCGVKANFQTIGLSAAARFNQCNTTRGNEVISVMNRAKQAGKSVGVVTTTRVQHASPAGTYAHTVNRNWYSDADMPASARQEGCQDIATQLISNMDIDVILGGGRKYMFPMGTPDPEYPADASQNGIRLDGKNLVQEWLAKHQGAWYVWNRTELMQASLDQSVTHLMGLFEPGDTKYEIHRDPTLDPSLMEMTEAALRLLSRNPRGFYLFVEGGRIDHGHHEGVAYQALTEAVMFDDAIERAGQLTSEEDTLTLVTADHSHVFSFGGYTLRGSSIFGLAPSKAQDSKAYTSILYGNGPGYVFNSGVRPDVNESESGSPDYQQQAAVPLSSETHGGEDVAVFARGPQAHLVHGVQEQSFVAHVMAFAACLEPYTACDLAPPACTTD

B1: dIAP: recombinant mouse duodenal intestinal alkaline phosphatase encoded by Akp3 (protein, UniProt P24822 20-528, looked up)
Intestinal-type alkaline …: VIPVEEENPAFWNKKAAEALDAAKKLQPIQTSAKNLIIFLGDGMGVPTVTATRILKGQLEGHLGPETPLAMDRFPYMALSKTYSVDRQVPDSASTATAYLCGVKTNYKTIGLSAAARFDQCNTTFGNEVFSVMYRAKKAGKSVGVVTTTRVQHASPSGTYVHTVNRNWYGDADMPASALREGCKDIATQLISNMDINVILGGGRKYMFPAGTPDPEYPNDANETGTRLDGRNLVQEWLSKHQGSQYVWNREQLIQKAQDPSVTYLMGLFEPVDTKFDIQRDPLMDPSLKDMTETAVKVLSRNPKGFYLFVEGGRIDRGHHLGTAYLALTEAVMFDLAIERASQLTSERDTLTIVTADHSHVFSFGGYTLRGTSIFGLAPLNALDGKPYTSILYGNGPGYVGTGERPNVTAAESSGSSYRRQAAVPVKSETHGGEDVAIFARGPQAHLVHGVQEQNYIAHVMASAGCLEPYTDCGLAPPADESQTTTTTRQTTITTTTTTTTTTTTPVHN

Columns and labels:
human IAP = biological target: T1, human IAP; test: IAP assay using CDP-Star (chemiluminescent, dose response); assay type: biochemical; conditions: IAP modulators, Tables A-H, positive = inhibitor; for n (Hill coefficient): negative = activator; for IC50: negative Hill coefficient = activator
Text: An expression vector pCMV-Script containing cDNA for human IAP, TNAP, PLAP, GCAP, mouse TNAP, dIAP, EAP or gIAP in secreted form (FLAG-tagged) is transfected into COS-1 cells for transient expression using a standard electroporation method. The GPI anchoring site is replaced by a FLAG sequence to make the proteins secreted into the media as well as to test their kinetics in a form immobilized by anti-FLAG antibody (Narisawa, et al, 2007). Medium is changed to serum free medium Opti-MEM (Invitrogen) 24 h later, and media containing secreted proteins was collected 66 hr after electroporation. Conditioned medium filtered by a 2 μm cellulose acetate membrane is supplemented with 0.1% BSA, aliquotted and stored at −80° C.
Human IAP is produced on a large scale to be used in the primary high throughput screening. For a maximum of 200,000 wells including a blank and negative control in each plate, approximately 1600 ml of the recombinant human IAP working solution (8 μl/well×200,000) is used. The working solution is a 1:80 dilution of the stock solution that has AP activity showing ΔOD405 (velocity) ˜300 in 5 min pNPP calorimetric assay. Therefore a minimum of 20 ml of the stock solution (1600÷80) is needed. An enzyme stock is prepared from ten 15 cm φ plates of COS-1 cells using 100 μg plasmid DNA [ten plates×(10 μg DNA/1×10^7 cells per 15 cm φ plate)].
Compound aliquots (4 μL at […] in 10% DMSO) are added to 8 μL of human IAP working solution of a the human IAP stock solution diluted 1:80 in assay buffer (250 mM DEA, pH 9.8, −2.5 mM MgCl2, −0.05 μM ZnCl2). The solution of substrate CDP-Star, disodium 2-chloro-5-(4-methoxyspiro{1,2-dioxetane-3,2′(5′-chloro)-tricyclo[3.3.1.1]3,7 decan}-4-yl)-1-phenyl phosphate (New England Biolabs), (8 μL of 125 μM in water) is added to each well. […] Dispensing of human IAP working solution and CDP-Star is processed using a WellMate bulk dispenser (Matrix). Plates (white 384-well small volume Greiner 784075) are incubated at room temperature for 30 min, and the luminescence signal is measured using a PerkinElmer EnVision multi-mode plate reader. L-Phenylalanine (1 mM final concentration) and 2% DMSO is utilized as an inhibition control and blank, respectively. Data analysis is processed using CBIS software (ChemInnovations, Inc).
The compound is diluted ([…] to 0.03 mM) and incubated with the human IAP enzyme for 30 min prior to addition of substrate. At the same time, human TNAP, human PLAP, human GCAP, mouse TNAP, mouse dIAP, mouse EAP and mouse gIAP is tested to determine enzyme specificity.

[1] = Kinetic parameters of recombinant mouse dIAP, gIAP and EAP using p-NPP as substrate; assay type: biochemical
Text: The epithelium of the mouse small intestine expresses two intestine specific AP genes, Akp3 and Akp6, and low levels of Akp5, which is not intestine specific (Narisawa, et al, 2007). AP proteins encoded by Akp3, Akp5 and Akp6 were designated duodenal IAP or dIAP, embryonic AP or EAP and global IAP or gIAP, respectively.

[2] = p-NPP as substrate, pH 9.8, means ± SD

Molecule	n (Hill coefficient) (human IAP)	IC50 (human IAP)	also measured
CC(OC(=O)c1cc(-c2ccc(Br)cc2)[nH]n1)C(=O)NC(C)(C)C (stereo not drawn) [Compound A13, 1-(tert-butylamino)-l-oxopropan-2-yl 5-(4-bromophenyl)-1H-pyrazole-3-carboxylate]	−1	93.4 µM	–
CC(C)(C)C(=O)COC(=O)c1cc(-c2ccc(Br)cc2)[nH]n1 [Compound A12, 3,3-dimethyl-2-oxobutyl 5-(4-bromophenyl)-1H-pyrazole-3-carboxylate]	−1.09	42.8 µM	–
O=C1C2CCCCC2C(=O)N1c1ncn[nH]1 (centres unmarked) [Compound F1, 2-(1H-1,2,4-triazol-5-yl)-hexahydro-1H-isoindole-1,3(2H)-dione]	−2.03	13.8 µM	–
CCOC(=O)c1cc(-c2ccc(Cl)cc2)n[nH]1 [Compound B17, ethyl 3-(4-chlorophenyl)-1H-pyrazole-5-carboxylate]	–	> 100 µM	–
COc1cccc(-c2cc(C(=O)O)[nH]n2)c1 [Compound B5, 3-(3-methoxyphenyl)-1H-pyrazole-5-carboxylic acid]	–	> 100 µM	–
Cc1ccc(-c2cc(C(=O)O)[nH]n2)cc1 [Compound A4, 5-(4-methylphenyl)-1H-pyrazole-3-carboxylic acid]	–	> 100 µM	–
Cn1ccnc1Cc1ncnc(Nc2ccccc2)n1 [Compound H3, 4-[(1-methyl-4H-imidazol-2-yl)methyl]-N-phenyl-1,3,5-triazin-2-amine]	−1.32	30.5 µM	–
CCOC(=O)c1cc(-c2cccc(C(F)(F)F)c2)[nH]n1 [Compound A6, ethyl 5-[3-(trifluoromethyl)phenyl]-1H-pyrazole-3-carboxylate]	−1.45	45.4 µM	–
O=C1c2ccccc2C(=O)N1c1nc(Cc2ccccc2)n[nH]1 [Compound F11, 2-(3-benzyl-1H-1,2,4-triazol-5-yl)isoindoline-1,3-dione]	0.5445	–	–
O=C1C2CC=CCC2C(=O)N1c1nc(-c2cccnc2)n[nH]1 (centres unmarked) [Compound F7, 2-[3-(pyridin-3-yl)-1H-1,2,4-triazol-5-yl)-3a,4,7,7a-tetrahydro-1H-isoindole-1,3(2H)-dione]	0.927	1.77 µM	–
O=c1cc(CCO)c2c(-c3ccccc3)n[nH]c2o1 [Compound E7, 4-(2-hydroxyethyl)-3-phenylpyrano[2,3-c]pyrazol-6(1H)-one]	–	> 100 µM	–
O=C(O)c1cc(-c2ccc(O)cc2)n[nH]1 [Compound B1, 3-(4-hydroxyphenyl)-1H-pyrazole-5-carboxylic acid]	1.1	79.2 µM	–
COC(=O)c1cc(-c2ccc([N+](=O)[O-])cc2)[nH]n1 [Compound A10, methyl 5-(4-nitrophenyl)-1H-pyrazole-3-carboxylate]	–	> 100 µM	–
Nc1ccc(-c2cc(C(=O)O)n[nH]2)cc1 [Compound A5, 5-(4-aminophenyl)-1H-pyrazole-3-carboxylic acid]	–	> 100 µM	–
Cn1nc(-c2ccc(F)cc2)cc1C(=O)O [Compound D1, 3-(4-fluorophenyl)-1-methyl 1H-pyrazole-5 carboxylic acid]	–	> 100 µM	–
Cc1ccc(-c2cc(C(=O)O)[nH]n2)cc1C [Compound B8, 3-(3,4-dimethylphenyl)-1H-pyrazole-5-carboxylic acid]	–	> 100 µM	–
O=C(c1[nH]nc2c1COc1ccccc1-2)N1CCCC1 [Compound E2, (2,4-dihydrochromeno[3,4-c]pyrazol-3-yl)(pyrrolidin-1-yl)methanone]	–	> 100 µM	–
CCc1ccc(-c2cc(C(=O)O)[nH]n2)cc1 [Compound B6, 3-(4-ethylphenyl)-1H-pyrazole-5-carboxylic acid]	–	> 100 µM	–
COc1ccc(-c2n[nH]c3oc(=O)cc(C)c23)cc1 [Compound E4, 3-(4-methoxyphenyl)-4-methylpyrano[2,3-c]pyrazol-6(1H)-one]	−1.49	23.7 µM	–
Cc1ccc(Cl)c(N2C(=O)C(Cl)C(N3CCN(C)CC3)C2=O)c1Cl (centres unmarked) [Compound H5, 3-chloro-1-(2,6-dichloro-3-methylphenyl)-4-(4-methylpiperazin-1-yl)pyrrolidine-2,5-dione]	–	> 100 µM	–
O=C(O)c1cc(-c2ccc3c(c2)OCCO3)n[nH]1 [Compound B11, 3-(2,3-dihydrobenzo[b][1,4]dioxyin-6-yl)-1H-pyrazole-5-carboxylic acid]	–	> 100 µM	–
CC(=O)Nc1nnc(SCc2ccc(Br)cc2)[nH]1 [Compound H2, N-[5-(4-bromobenzylthio)-4H-1,2,4-triazol-3-yl)acetamide]	−0.563	86.4 µM	–
CCOC(=O)c1[nH]nc2c1COc1ccccc1-2 [Compound E3, ethyl 2,4-dihydrochromeno[3,4-c]pyrazole-3-carboxylate]	–	> 100 µM	–
O=C(CSc1nnc[nH]1)NCCOc1ccccc1 [Compound H1, 2-(4H-1,2,4-triazol-3-ylthio)-N-(2-phenoxyethyl)acetamide]	–	> 100 µM	–
O=C(O)c1cc(-c2ccccc2O)n[nH]1 [Compound B2, 3-(2-hydroxyphenyl)-1H-pyrazole-5-carboxylic acid]	−1.92	7.85 µM	–
B1	–	–	Km [1, 2]: 1100 ± 340 µM; kcat [1, 2]: 339 ± 13 s⁻¹; Km ([1]; pNPP assay, recombinant enzyme, repeated in text): 1100 ± 340 µM
